PubChem BioAssay (NCI)
Several values for one entry are separate records, joined by “and”; a condition that tells them apart may be missing. Equal entries are not always repeated.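 Protocol summary: plate cells (96-well), add compound at 5 concentrations, incubate 48 h, interpolate endpoints linearly. GI50 = concentration required for 50% inhibition of growth. TGI denotes the concentration required for complete inhibition of growth.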 Where a SMILES comes first, the peptide text is derived from it. Bridges are numbered along the chain shown (N, C = ends).

Columns and labels:
Test in all cases: DTP human tumour cell line panel, 48 h
PC-3 prostate = test system: PC-3 prostate
HT29 colon = test system: HT29 colon
DU-145 prostate = test system: DU-145 prostate
SF-295 CNS = test system: SF-295 CNS
NCI-H522 lung = test system: NCI-H522 lung
NCI/ADR-RES ovarian = test system: NCI/ADR-RES ovarian
HCC-2998 colon = test system: HCC-2998 colon
NCI-H460 lung = test system: NCI-H460 lung
CAKI-1 renal = test system: CAKI-1 renal
SW-620 colon = test system: SW-620 colon

SMILES	TGI (PC-3 prostate)	GI50 (HT29 colon)	TGI (HT29 colon)	TGI (DU-145 prostate)	GI50 (SF-295 CNS)	TGI (SF-295 CNS)	GI50 (NCI-H522 lung)	TGI (NCI-H522 lung)	GI50 (NCI/ADR-RES ovarian)	TGI (NCI/ADR-RES ovarian)	TGI (HCC-2998 colon)	GI50 (NCI-H460 lung)	TGI (NCI-H460 lung)	GI50 (CAKI-1 renal)	TGI (CAKI-1 renal)	GI50 (SW-620 colon)	TGI (SW-620 colon)
CCN(CC)CC[n+]1ccc2c(C)c3[nH]c4ccccc4c3c(C)c2c1	3.18 µM	0.416 µM	3.82 µM and 4.45 µM and 4.46 µM	3.72 µM	1.28 µM	6.9 µM and 15.1 µM and 6.83 µM	0.247 µM	1.36 µM and 2.58 µM and 1.87 µM	27.2 µM and 43.6 µM and 87.6 µM	48.1 µM and 125 µM	1.52 µM and 1.43 µM and 1.97 µM	0.332 µM	2.31 µM and 2.16 µM and 1.01 µM	8.97 µM	10.3 µM and > 38.3 µM and 7.08 µM	0.654 µM	5.65 µM and 13.2 µM and 6.96 µM
O=C1CC(c2cccc([N+](=O)[O-])c2)C2(C(=O)NC(=S)NC2=O)C(c2cccc([N+](=O)[O-])c2)C1 (configuration not stated)	> 100 µM	–	> 100 µM	> 100 µM	–	> 100 µM	–	89.6 µM	–	> 100 µM	59.2 µM	–	> 100 µM	–	64.3 µM	–	> 100 µM
O=C(CCC(NC(=O)OCc1ccccc1)C(=O)OCc1ccccc1)Nc1cccc(OCc2ccccc2)c1 (configuration not stated)	35.9 µM	–	70.9 µM	79.6 µM	–	> 100 µM	–	70.1 µM	–	> 100 µM	> 100 µM	–	53.3 µM	–	> 100 µM	–	> 100 µM
CC(C)(C)c1cc(C(C)(C)C)c(SC2OC(CO)C(O)C(O)C2O)c(O)c1O (configuration not stated)	28.3 µM	–	24.5 µM	31.8 µM	–	28.3 µM	–	20.9 µM	–	34.3 µM	18.2 µM	–	10.5 µM	–	> 84.9 µM	–	49.9 µM
C#CCn1c(I)cc2c(c1=O)COC(=O)[C@]2(O)CC	> 100 µM	–	> 100 µM	> 100 µM	–	> 100 µM	–	> 100 µM	–	> 100 µM	> 100 µM	–	> 100 µM	–	> 100 µM	–	> 100 µM
COc1ccc(NCn2nc(CCCCCCCCc3nn(CNc4ccc(OC)cc4)c(=S)o3)oc2=S)cc1	> 100 µM	–	> 100 µM	> 100 µM	–	> 100 µM	–	> 100 µM	–	> 100 µM	> 100 µM	–	> 100 µM	–	> 100 µM	–	> 100 µM
O=C(NC1=C(Cl)C(=O)c2ccccc2C1=O)C(=O)c1c(O)c2ccccc2oc1=O	> 27.1 µM	–	12.8 µM	2.93 µM	–	9.58 µM	–	16.1 µM	–	20 µM	20.4 µM	–	7.68 µM	–	22.6 µM	–	> 40.9 µM
C(=Nc1ccc(-c2nc3ccccc3s2)cc1)c1cccs1	> 100 µM	–	> 100 µM	> 100 µM	–	68.8 µM	–	> 100 µM	–	> 100 µM	> 100 µM	–	> 100 µM	–	> 100 µM	–	> 100 µM
O=C(NNC(=O)c1ccc(Cl)cc1NC(=O)C12CC3CC(CC(C3)C1)C2)c1ccc(Cl)cc1	82.4 µM	–	77 µM	62.1 µM	–	57 µM	–	36 µM	–	63.1 µM	33.4 µM	–	66.3 µM	–	73.6 µM	–	> 100 µM
O=C(Oc1cncc(Cl)c1)c1cc2ccccc2sc1=O	> 100 µM	–	> 100 µM	> 100 µM	–	> 100 µM	–	47.3 µM	–	> 100 µM	> 100 µM	–	> 100 µM	–	> 100 µM	–	> 100 µM
COC(=O)C1CCC(=O)NCCCCC(NC(=O)C(N)CC(=O)O)C(=O)N1 (stereo not drawn) (H-Asp-Lys-Glu-OMe; lactam 2-3; configuration not given here)	> 100 µM	–	> 100 µM	> 100 µM	–	> 100 µM	–	> 100 µM	–	> 100 µM	> 100 µM	–	> 100 µM	–	> 100 µM	–	> 100 µM
Cc1cc2ccccc2oc(=O)/c1=N\Nc1ccccc1	> 100 µM	–	> 100 µM	> 100 µM	–	> 100 µM	–	> 100 µM	–	> 100 µM	> 100 µM	–	> 100 µM	–	> 100 µM	–	> 100 µM
COC(=O)[C@@H]1C=CCN1S(=O)(=O)c1ccc(C)cc1	> 100 µM	–	> 100 µM	> 100 µM	–	> 100 µM	–	> 100 µM	–	> 100 µM	> 100 µM	–	> 100 µM	–	57.8 µM	–	> 100 µM
COC(=O)c1ccc(C)cc1C1CN=NC12Cc1cccc(C)c1C2=O (configuration not stated)	70.6 µM	–	> 100 µM	> 100 µM	–	> 100 µM	–	78.1 µM	–	67.1 µM	> 100 µM	–	> 100 µM	–	> 100 µM	–	> 100 µM
COc1ccc(Cn2c(=O)c(OS(=O)(=O)C(F)(F)F)c(C)c3cc4ccccc4cc32)cc1	> 100 µM	–	> 100 µM	> 100 µM	–	> 100 µM	–	> 100 µM	–	> 100 µM	> 100 µM	–	> 100 µM	–	> 100 µM	–	> 100 µM
